pEC50: −log10 of the molar value. Where two headings read alike, the source gives them in different places.
Experiments:
[1] = system: "Huh-luc/neo-ET" HCV replicon; test: In vitro synergy assay, two drug combinations, luciferase, Bliss additivity; format: cell-based; details: 72 h
Excerpt: The coding sequence of the published HCV replicon was synthesized and subsequently assembled in a modified plasmid pBR322 (Promega, Madison, Wis.) using standard molecular biology techniques. One replicon cell line (“SGR 11-7”) stably expresses HCV replicon RNA which consists of (i) the HCV 5′UTR fused to the first 12 amino acids of the capsid protein, (ii) the neomycin phosphotransferase gene (neo), (iii) the IRES from encephalomyocarditis virus (EMCV), and (iv) HCV NS2 to NS5B genes and the HCV 3′UTR. Another replicon cell line (“Huh-luc/neo-ET”) described by Vrolijk et. al. (Vrolijk et. al. (2003) Journal of Virological Methods 110:201-209, expressly incorporated by reference in its entirety) stably expresses HCV replicon RNA which consists of (i) the HCV 5′UTR fused to the first 12 amino acids of the capsid protein, (ii) the firefly luciferase reporter gene, (iii) the ubiquitin gene, (iv) the neomycin phosphotransferase gene (neo), (v) the IRES from encephalomyocarditis virus (EMCV), and (vi) HCV NS3 to NS5B genes that harbor cell culture adaptive mutations (E1202G, T12801, K1846T) and the HCV 3′UTR.
Since clinical drug resistance often develops in viral infections following single agent therapies, there is a need to assess the additive, antagonistic, or synergistic properties of combination therapies. We used the HCV replicon system to assess the potential use of our NS5A inhibitors in combination therapies with Interferon alpha, cyclosporine analogs and inhibitors targeting other HCV proteins. The acute effects of combinations of drugs were studied in the “Huh-luc/neo-ET” replicon with each chemical agent titrated in an X or Y direction in a 6 point two-fold dilution curve centered around the EC50 of each drug. Briefly, replicon cells were seeded at 7,000 cells per well in 90 ul DMEM (without phenol red, Invitrogen Cat. #31053-036) per well with 10% FCS, 1% non-essential amino acids, 1% of Glutamax and 1% of 100× penicillin/streptomycin and incubated overnight at 37° C., 5% C02, 100% relative humidity. 16-20 h after seeding cells, test compounds previously solubilized and titrated in dimethyl sulfoxide (“DMSO”) from each X plate and Y plate were diluted 1:100 in DMEM (without phenol red, Invitrogen Cat. #31053-036) with 10% FCS, 1% non-essential amino acids, 1% of Glutamax and 1% of 100× penicillin/streptomycin and added directly to the 96-well plate containing cells and growth medium at a 1:10 dilution for a final dilution of compound and DMSO of 1:1000 ([…] final concentration). Drug treated cells were incubated at 37° C., 5% C02, 100% relative humidity for 72 hours before performing a luciferase assay using 100 ul per well BriteLite Plus (Perkin Elmer) according to the manufacturer's instructions. Data analysis utilizes the method published by Prichard and Shipman (Antiviral Research, 1990. 14:181-205). Using this method, the combination data were analyzed for antagonistic, additive, or synergistic combination effects across the entire combination surface created by the diluted compounds in combination.
We used the HCV replicon system to assess the potential use of our NS5A inhibitor in combination therapies with Interferon alpha, cyclosporine analogs or inhibitors targeting other HCV proteins. Several HCV antivirals, including protease inhibitors (ITMN-191, SCH503034, VX-950), a nucleoside analog (such as those described in WO01/90121(A2), U.S. Pat. No. 6,348,587B1, WO01/60315 or WO01/32153), a nonnucleoside NS5B polymerase inhibitor (GSK625433), a cyclosporine analog, as well as Interferon alpha, are tested in combination with Compounds 90, 93 or 95 herein, inhibitors of HCV NS5A. Antivirals were tested at five concentrations each, diluted in DMSO by 2-fold dilutions. The antivirals were tested as monotherapies and in combination with Compounds 90, 93 or 95 (described herein) at various concentration ratios. […]

[2] = system: HCV 1b genotype replicon; test: HCV replicon drug screening assay (quantitative RT-PCR or luciferase), genotype 1b; format: cell-based; details: Hepatitis C virus, read-out: Genotype-1b replicon EC50 Range
Method in brief: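 Huh-derived subgenomic genotype 1b replicon lines (SGR 11-7, neo; Huh-luc/neo-ET, firefly luciferase with adaptive mutations) grown at 37 °C. EC50 from HCV RNA by TaqMan one-step qRT-PCR normalised to GAPDH RNA. Cytotoxicity measured in parallel by MTS.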

[3] = in combination with Boceprevir (SCH503034)
[4] = in combination with Cyclosporine analog
[5] = in combination with Interferon-alpha
[6] = in combination with Telaprevir (VX-950)
[7] = HCV 1b genotype replicon, quantitative RT-PCR or luciferase assay

Q: What does the source list for COC(=O)N[C@H](C(=O)N1CCC[C@H]1c1ncc(-c2ccc(C#Cc3ccc4nc([C@@H]5CCCN5C(=O)[C@@H](NC(=O)OC)C(C)C)[nH]c4c3)cc2)[nH]1)C(C)C [Compound 90]?
A: Bliss Volume (%) at 95% Confidence Intervals, Antagonism [1, 3]: 0%; Bliss Volume (%) at 95% Confidence Intervals, Synergy [1, 3]: 48%; Result (combination effect) [1, 3]: Synergistic; Synergy Score [1, 3]: 48%; Bliss Volume (%) at 95% Confidence Intervals, Antagonism [1, 4]: 0%; Bliss Volume (%) at 95% Confidence Intervals, Synergy [1, 4]: 0%; Result (combination effect) [1, 4]: Additive; Synergy Score [1, 4]: 0%; Bliss Volume (%) at 95% Confidence Intervals, Antagonism ([1]; in combination with GSK625433): −1%; Bliss Volume (%) at 95% Confidence Intervals, Synergy ([1]; in combination with GSK625433): 12%; Result (combination effect) ([1]; in combination with GSK625433): Additive; Synergy Score ([1]; in combination with GSK625433): 11%; Bliss Volume (%) at 95% Confidence Intervals, Antagonism ([1]; in combination with ITMN-191): −9%; Bliss Volume (%) at 95% Confidence Intervals, Synergy ([1]; in combination with ITMN-191): 2%; Result (combination effect) ([1]; in combination with ITMN-191): Additive; Synergy Score ([1]; in combination with ITMN-191): −7%; Bliss Volume (%) at 95% Confidence Intervals, Antagonism [1, 5]: −14%; Bliss Volume (%) at 95% Confidence Intervals, Synergy [1, 5]: 6%; Result (combination effect) [1, 5]: Additive; Synergy Score [1, 5]: −8%; Bliss Volume (%) at 95% Confidence Intervals, Antagonism ([1]; in combination with R7128): 0%; Bliss Volume (%) at 95% Confidence Intervals, Synergy ([1]; in combination with R7128): 34%; Result (combination effect) ([1]; in combination with R7128): Synergistic; Synergy Score ([1]; in combination with R7128): 34%; Bliss Volume (%) at 95% Confidence Intervals, Antagonism [1, 6]: −1%; Bliss Volume (%) at 95% Confidence Intervals, Synergy [1, 6]: 0%; Result (combination effect) [1, 6]: Additive; Synergy Score [1, 6]: −1%; pEC50 [2, 7]: > 9.00

Q: How did the pEC50 [2, 7] turn out when COC(=O)N[C@H](C(=O)N1CCC[C@H]1c1ncc(-c2ccc(C#Cc3ccc4nc([C@@H]5C[C@H]6C[C@H]6N5C(=O)[C@@H](NC(=O)OC)C(C)C)[nH]c4c3)cc2)[nH]1)C(C)C [Compound 107] was run?
A: > 9.00

Q: With COC(=O)N[C@H](C(=O)N1CCC[C@H]1c1ncc(-c2ccc(C#Cc3ccc4nc([C@@H]5CC[C@H](C)N5C(=O)[C@@H](NC(=O)OC)C(C)C)[nH]c4c3)cc2)[nH]1)C(C)C [Compound 108] as the compound, how does the pEC50 [2, 7] read?
A: > 9.00

Q: How did the pEC50 [2, 7] turn out when COC(=O)N[C@H](C(=O)N1CCC[C@H]1c1ncc(-c2ccc(C#Cc3ccc4nc([C@@H]5C[C@H](F)CN5C(=O)[C@@H](NC(=O)OC)C(C)C)[nH]c4c3)cc2)[nH]1)C(C)C [Compound 109] was run?
A: > 9.00

Q: COC(=O)N[C@H](C(=O)N1CCC[C@H]1c1ncc(-c2ccc(C#Cc3cc4[nH]c([C@@H]5CCCN5C(=O)[C@@H](NC(=O)OC)C(C)C)nc4cc3OC)cc2)[nH]1)C(C)C [Compound 110] was tested. Which pEC50 [2, 7] did it give?
A: > 9.00

Q: How did the pEC50 [2, 7] turn out when COC(=O)N[C@@H](C(=O)N1CCC[C@H]1c1nc2cc(-c3ccc(-c4cnc5[nH]c([C@@H]6CCCN6C(=O)[C@H](NC(=O)OC)c6ccccc6)nc5c4)cc3)cnc2[nH]1)c1ccccc1 [Compound 112] was run?
A: > 9.00

Q: COC(=O)N[C@H](C(=O)N1CCC[C@H]1c1nc(-c2ccc(C#Cc3ccc4[nH]c([C@@H]5CCCN5C(=O)[C@@H](NC(=O)OC)C(C)C)nc4n3)cc2)c[nH]1)C(C)C [Compound 113] was tested. Which pEC50 [2, 7] did it give?
A: > 9.00

Q: COC(=O)N[C@H](C(=O)N1CCC[C@H]1c1nc(-c2ccc3cc(-c4ccc5[nH]c([C@@H]6CCCN6C(=O)[C@@H](NC(=O)OC)C(C)C)nc5n4)ccc3c2)c[nH]1)C(C)C [Compound 114] was tested. Which pEC50 [2, 7] did it give?
A: > 9.00

Q: With COC(=O)N[C@@H](C(=O)N1CCC[C@H]1c1cc2cc(C#Cc3ccc(-c4c[nH]c([C@@H]5CCCN5C(=O)[C@H](NC(=O)OC)c5ccccc5)n4)cc3)ccc2[nH]1)c1ccccc1 [Compound 116] as the compound, how does the pEC50 [2, 7] read?
A: > 9.00

Q: C=C1C[C@@H](c2nc3cc(C#Cc4ccc(-c5c[nH]c([C@@H]6CCCN6C(=O)[C@@H](NC(=O)OC)C(C)C)n5)cc4)ccc3[nH]2)N(C(=O)[C@@H](NC(=O)OC)C(C)C)C1 [Compound 117] was tested. Which pEC50 [2, 7] did it give?
A: > 9.00

Q: C=C1C[C@@H](c2nc(-c3ccc(C#Cc4ccc5[nH]c([C@@H]6CCCN6C(=O)[C@@H](NC(=O)OC)C(C)C)nc5c4)cc3)c[nH]2)N(C(=O)[C@@H](NC(=O)OC)C(C)C)C1 [Compound 118] was tested. Which pEC50 [2, 7] did it give?
A: > 9.00

Q: How did the pEC50 [2, 7] turn out when C=C1C[C@@H](c2nc(-c3ccc(C#Cc4ccc5[nH]c([C@@H]6CC(=C)CN6C(=O)[C@@H](NC(=O)OC)C(C)C)nc5c4)cc3)c[nH]2)N(C(=O)[C@@H](NC(=O)OC)C(C)C)C1 [Compound 119] was run?
A: > 9.00

Q: COC(=O)N[C@@H](C(=O)N1CCC[C@H]1c1ncc(C(=O)N[C@H]2CC[C@H](NC(=O)c3cnc([C@@H]4CCCN4C(=O)[C@H](NC(=O)OC)c4ccccc4)[nH]3)CC2)[nH]1)c1ccccc1 [Compound 120] was tested. Which pEC50 [2, 7] did it give?
A: < 8.00

Q: COC(=O)N[C@@H](C(=O)N1CCC[C@H]1c1ncc(C(=O)Nc2ccc(NC(=O)c3cnc([C@@H]4CCCN4C(=O)[C@H](NC(=O)OC)c4ccccc4)[nH]3)cc2)[nH]1)c1ccccc1 [Compound 121] was tested. Which pEC50 [2] did it give?
A: 8.00 to 9.00

Q: COC(=O)N[C@H](C(=O)N1CCC[C@H]1c1nc2cc(C#Cc3ccc(-c4c[nH]c(C5[C@H]6CC[C@H](C6)N5C(=O)[C@@H](NC(=O)OC)C(C)C)n4)cc3)ccc2[nH]1)C(C)C (stereo partly shown) [Compound 122] was tested. Which pEC50 [2, 7] did it give?
A: > 9.00

Q: With COC(=O)N[C@H](C(=O)N1CCC[C@H]1c1nc(-c2ccc(C#Cc3ccc4[nH]c([C@@H]5[C@H]6CC[C@H](C6)N5C(=O)[C@@H](NC(=O)OC)C(C)C)nc4c3)cc2)c[nH]1)C(C)C [Compound 123] as the compound, how does the pEC50 [2, 7] read?
A: > 9.00

Q: How did the pEC50 [2, 7] turn out when COC(=O)N[C@H](C(=O)N1CCC[C@H]1c1nc(-c2ccc(-c3ccc(-c4ccc5[nH]c([C@@H]6[C@H]7CC[C@H](C7)N6C(=O)[C@@H](NC(=O)OC)C(C)C)nc5c4)cc3)cc2)c[nH]1)C(C)C [Compound 124] was run?
A: > 9.00

Q: With COC(=O)N[C@H](C(=O)N1CCC[C@H]1c1ncc(-c2ccc(C#Cc3ccc4nc([C@@H]5C6CCC(CC6)N5C(=O)[C@@H](NC(=O)OC)C(C)C)[nH]c4c3)cc2)[nH]1)C(C)C [Compound 125] as the compound, how does the pEC50 [2, 7] read?
A: > 9.00

Q: COC(=O)N[C@H](C(=O)N1[C@@H]2CC[C@@H](C2)[C@H]1c1nc(-c2ccc(C#Cc3ccc4[nH]c([C@@H]5[C@H]6CC[C@H](C6)N5C(=O)[C@@H](NC(=O)OC)C(C)C)nc4c3)cc2)c[nH]1)C(C)C [Compound 126] was tested. Which pEC50 [2, 7] did it give?
A: > 9.00

Q: How did the pEC50 [2, 7] turn out when COC(=O)N[C@H](C(=O)N1CCC[C@H]1c1nc(-c2ccc3cc(-c4ccc5[nH]c([C@@H]6[C@H]7CC[C@H](C7)N6C(=O)[C@@H](NC(=O)OC)C(C)C)nc5c4)ccc3c2)c[nH]1)C(C)C [Compound 129] was run?
A: > 9.00

Q: CON=C1C[C@@H](c2nc3cc(C#Cc4ccc(-c5c[nH]c([C@@H]6CCCN6C(=O)[C@@H](NC(=O)OC)C(C)C)n5)cc4)ccc3[nH]2)N(C(=O)[C@@H](NC(=O)OC)C(C)C)C1 [Compound 131] was tested. Which pEC50 [2, 7] did it give?
A: > 9.00

From patent US9060971B2, “Combination pharmaceutical agents as inhibitors of HCV replication” (Enanta Pharmaceuticals, Inc., priority 2010, dated 2015)
